Results taken from patent publication US20260366053A1, “SYNTHESIS OF COTYLENIN AND ANALOGS THEREOF FOR THE DEVELOPMENT OF SELECTIVE MODULATORS OF 14-3-3 PROTEIN-PROTEIN INTERACTION” (priority 2022, published 2026).
“Also recorded” adds a separate entry of the source.

Tests used:
[1] = tested on: 14-3-3 proteins and their clients; conditions: cited from earlier work
14-3-3 PPI = conditions: cited from earlier work
[2] = tested on: 14-3-3sigma and the C-terminal of TASK-3; conditions: structural; listed as cotylenol; cited from earlier work
[3] = tested on: human myeloid leukemia cells; conditions: listed as cotylenol; cited from earlier work
[4] = target: P450BM3 variant MERO1 L75A (Priestia megaterium, UniProt P14779, A185V/A291V/A83G/E253G/F206C/F88V/H237Q/L354V/L76A/P143S/R256S/S227R/T176I/V79A); conditions: role: substrate; cofactor Na2NADP 0.2 eq.; lysate, 22 °C, 16 h, pH 8.0
[5] = target: P450BM3 variant MERO1 FT (MERO1 L181F V184T) (Priestia megaterium, UniProt P14779, A185T/A291V/A83G/E253G/F206C/F88V/H237Q/L182F/L354V/P143S/R256S/S227R/T176I/V79A); conditions: role: substrate; cofactor Na2NADP 0.2 eq.; lysate, 22 °C, 16 h, pH 8.0
Wild-type Bsc9 = Wild-type Bsc9 (Alternaria brassicicola, UniProt D7UTD1); type: biochemical; conditions: for conversion: pH 8.5
MoBsc9 = type: biochemical, Magnaporthe oryzae; conditions: for conversion: role: substrate, cosubstrate α-ketoglutarate, 1 mg scale, clarified lysate, 15 °C, 10 h, pH 8.5
BscD = BscD (Pseudocercospora fijiensis, UniProt M2ZB93); conditions: role: substrate; E. coli lysates
Description: The biocatalytic use of BscD and Bsc9 was investigated for the oxidation of 20.

Bsc9 “VR” = Bsc9 “VR” (Alternaria brassicicola, UniProt D7UTD1, DEL103-114/G116R/H115V); conditions: role: substrate

P450BM3 variant MERO1 L75A, sequence (P14779 whole entry L76A/V79A/A83G/F88V/P143S/T176I/A185V/F206C/S227R/H237Q/E253G/R256S/A291V/L354V): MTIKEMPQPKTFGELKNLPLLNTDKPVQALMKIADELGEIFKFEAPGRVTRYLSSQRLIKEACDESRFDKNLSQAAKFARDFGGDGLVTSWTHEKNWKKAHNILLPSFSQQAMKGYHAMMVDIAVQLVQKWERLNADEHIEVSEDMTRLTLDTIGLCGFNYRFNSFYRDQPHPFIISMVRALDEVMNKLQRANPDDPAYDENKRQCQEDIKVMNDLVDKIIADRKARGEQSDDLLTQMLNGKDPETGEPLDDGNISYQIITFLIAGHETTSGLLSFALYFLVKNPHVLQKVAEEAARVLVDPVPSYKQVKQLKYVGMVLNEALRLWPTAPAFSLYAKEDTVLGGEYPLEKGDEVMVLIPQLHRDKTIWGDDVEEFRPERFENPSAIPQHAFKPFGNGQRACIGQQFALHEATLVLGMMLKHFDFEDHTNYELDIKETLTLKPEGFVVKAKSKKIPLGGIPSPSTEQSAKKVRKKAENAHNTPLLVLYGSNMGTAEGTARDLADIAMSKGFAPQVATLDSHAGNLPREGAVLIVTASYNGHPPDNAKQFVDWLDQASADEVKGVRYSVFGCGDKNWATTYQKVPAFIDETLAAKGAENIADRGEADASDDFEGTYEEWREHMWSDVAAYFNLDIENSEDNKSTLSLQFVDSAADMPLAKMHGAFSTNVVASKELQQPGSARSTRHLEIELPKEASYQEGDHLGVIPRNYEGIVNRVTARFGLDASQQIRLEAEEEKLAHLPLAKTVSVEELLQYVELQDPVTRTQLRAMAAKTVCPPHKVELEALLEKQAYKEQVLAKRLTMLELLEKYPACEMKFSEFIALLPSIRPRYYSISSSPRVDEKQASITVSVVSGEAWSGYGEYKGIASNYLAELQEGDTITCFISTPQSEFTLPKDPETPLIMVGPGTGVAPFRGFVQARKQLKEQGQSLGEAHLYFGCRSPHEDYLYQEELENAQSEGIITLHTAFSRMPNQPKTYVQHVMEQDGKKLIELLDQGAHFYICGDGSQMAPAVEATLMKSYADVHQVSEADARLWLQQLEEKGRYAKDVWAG
P450BM3 variant MERO1 FT (MERO1 L181F V184T), sequence (P14779 whole entry V79A/A83G/F88V/P143S/T176I/L182F/A185T/F206C/S227R/H237Q/E253G/R256S/A291V/L354V): as the sequence (P14779 whole entry L76A/V79A/A83G/F88V/P143S/T176I/A185V/F206C/S227R/H237Q/E253G/R256S/A291V/L354V) above, with A76L, L182F, V185T counted along it

## C=CC(C)(C)OC[C@H]1O[C@H](O[C@@H]2C3=C([C@H](C)COC(C)=O)C[C@H](O)[C@]3(C)/C=C3/[C@@H](COC)CC[C@H]3[C@@H](C)[C@H]2O)[C@H](O)[C@@H](OC(C)=O)[C@@H]1O [Compound 2]
[1]
  molecular glue activity: capable of acting as molecular glues
14-3-3 PPI
  phytotoxicity: phytotoxins that target the 14-3-3 PPI

## COC[C@@]1(O)CC[C@@H]2/C1=C\[C@@]1(C)CCC(C(C)C)=C1[C@@H](O)[C@H](O)[C@@H]2C [Compound 3]
[2]
  ternary complex formation: form a ternary complex with 14-3-3sigma and the C-terminal of TASK-3; also recorded: a crystal structure of cotylenol in complex with 14-3-3s and a synthetic C-terminal hexapeptide of TASK-3 has also been solved
[3]
  cytotoxicity: cytotoxic toward human myeloid leukemia cells; also recorded: moderate cytotoxicity on human myeloid leukemia cells

## COC[C@@]1(O)CC[C@@H]2/C1=C\[C@@]1(C)CCC(C(C)C)=C1C[C@H](O)[C@@H]2C [Compound 4]
[4]
  regioselectivity of hydroxylation at C13: without any observable regioisomers

## COCC1=C2C[C@@]3(C)CCC(C(C)C)=C3CC(=O)[C@H](C)[C@@H]2CC1 [Compound 8]
[5]
  regioselectivity of oxidation: primarily at C4

## COCC1=C2C[C@@]3(C)CCC(C(C)C)=C3[C@@H](O)C(=O)[C@H](C)[C@@H]2CC1 [Compound 20]
Wild-type Bsc9
  conversion (in words): moderate conversion
  conversion: 43%
MoBsc9
  conversion: 100%
BscD
  reaction (in words): no reaction
Bsc9 “VR”
  reaction (in words): no reaction

## COC[C@@]1(O)CC[C@@H]2/C1=C\[C@@]1(C)CCC(C(C)C)=C1[C@@H](O)C(=O)[C@@H]2C [Compound 21]
MoBsc9; role: product, relative to Bsc9
  improvement in assay yield of 21: ca. two-fold

## CC(C)C1=C2[C@@H](O)C(=O)[C@H](C)[C@@H]3CCC(=O)/C3=C/[C@@]2(C)CC1 [Compound 22]
Wild-type Bsc9
  conversion (in words): no further conversion

## COCC1=C2C[C@@]3(C)CCC(C(C)C)=C3C[C@H](O)[C@H](C)[C@@H]2CC1 [Compound 23]
Wild-type Bsc9
  selectivity (percent ratio of the desired product:total products): 43%
  conversion: 37%
MoBsc9
  conversion: 30%
